Reference: patent publication US8507533B2, “Glucagon receptor modulators” (Pfizer Inc., priority 2011, dated 2013)

Columns and labels:
[1] = molecular target: T1, human glucagon receptor (Homo sapiens (Human), UniProt P47871); test: Glucagon cAMP Assay (Cisbio cAMP detection); type: cell-based; details: CHOK1 cells stably transfected with the human glucagon receptor; block of glucagon induced cAMP production; Kb by modified Cheng-Prusoff equation
Method: The Cisbio cAMP detection assay is used to determine the ability of punitive glucagon antagonist to block glucagon induced cAMP production. Potential glucagon antagonists are re-suspended and diluted in 100% DMSO. Prior to use in the Glucagon cAMP assay 100×DMSO compound stocks are diluted 20× with DMEM-F12 media (Invitrogen) containing either 0.1% or 4% BSA. […] 2 μls of 5% DMSO or known glucagon antagonist are added to each plate to define the assay window. CHOK1 cells stably transfected with the human glucagon receptor are removed from culture flasks with cell dissociation buffer. Cell pellets are re-suspended, at a concentration of 8.3e^5 cells/ml in DMEM-F12 with or without 4% BSA and 200 uM IBMX. 6 μls of cell suspensions are added to the assay plates. Plates are incubated for 20 min at room temperature prior to the addition of a 100 μM challenge dose of glucagon. On a separate plate glucagon dose response curves are run to determine the EC50 of glucagon. After a 30 min room temperature incubation the reaction is terminated by the addition of lysis buffer containing the cAMP detection reagents. Plates are incubated for an additional 60 min at room temperature prior to being read on the Perkin Elmer fluorescent plate reader. Raw is converted to nM of cAMP produced based on a cAMP standard curve. Converted data is then analyzed using the Pfizer data analysis program. IC50 values are determined from the generated sigmoidal dose response curves. Kb values are calculated using a modified Cheng-Prusoff equation. N is the number of times the compound was assayed.

[2] = molecular target: T1, human glucagon receptor; test: Human Glucagon SPA Assay (binding of [125I]Glucagon-Cex); details: membrane from chem-1 cells stably transfected with the human glucagon receptor, Ki by Cheng-Prusoff equation
Method: The Glucagon SPA assay is used to determine the ability of test compounds to block the binding of glucagon-cex to the glucagon receptor. Test compounds are re-suspended and serially diluted in 100% DMSO. 1 μl of test compound at the desired concentrations is spotted into the appropriate wells of 96 well low binding white clear bottom plate (Corning). 1 μl of DMSO is spotted into total binding wells. 1 μl of a known glucagon antagonist at a concentration of 20 μM is added to non specific binding wells. […] All assay ingredients with the exception of test compounds are re-suspended in the following buffer; 50 mM Hepes pH 7.4; 5 mM MgCl2; 1 mM CaCl; 5% glycerol and 0.2% BSA. Following a 6-10 hr incubation at room temperature the amount of hot ligand bound to the cell membranes is determined by reading the plates on a Wallac Trilux radioactive emission detector. Data is analyzed using Pfizer's Data analysis program. IC50 values are then determined from the generated sigmoidal dose response curves. Ki values are calculated using Cheng-Prusoff equation. N is the number of times the compound was assayed.

T1 sequence (P47871 26-477): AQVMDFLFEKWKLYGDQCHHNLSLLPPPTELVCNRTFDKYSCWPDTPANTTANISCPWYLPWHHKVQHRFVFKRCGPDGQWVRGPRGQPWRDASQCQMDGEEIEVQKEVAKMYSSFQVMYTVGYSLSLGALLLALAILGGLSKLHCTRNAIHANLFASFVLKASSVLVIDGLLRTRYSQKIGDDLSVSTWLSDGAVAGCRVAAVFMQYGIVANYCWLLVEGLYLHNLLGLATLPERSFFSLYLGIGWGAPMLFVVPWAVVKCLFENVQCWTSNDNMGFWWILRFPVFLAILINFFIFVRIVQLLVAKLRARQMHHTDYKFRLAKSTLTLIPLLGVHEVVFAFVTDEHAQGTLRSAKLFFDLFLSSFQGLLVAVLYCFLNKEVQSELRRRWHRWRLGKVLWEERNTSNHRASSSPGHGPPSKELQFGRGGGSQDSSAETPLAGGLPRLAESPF

Structure (SMILES)	Kb [1]	Ki [2]
CCCC(Nc1ccc(-n2cnc(-c3ccccc3)c2)nc1)c1ccc(C(=O)NCCC(=O)O)cc1 (single isomer, unassigned) [Example 129, 3-(4-(1-(6-(4-phenyl-1H-imidazol-1-yl)pyridin-3-ylamino)butyl)benzamido)propanoic acid]	13 nM	29.3 nM
CC1(C)CC(C(Nc2ccc(-n3cnc(C(F)(F)F)c3)nc2)c2ccc(C(=O)NCCC(=O)O)cc2)C1 (centres unmarked) [Example 188, (+\−)-3-(4-((3,3-dimethylcyclobutyl)(6-(4-(trifluoromethyl)-1H-imidazol-1-yl)pyridin-3-ylamino)methyl)benzamido)propanoic acid]	106 nM	42.2 nM
Cc1cc(C(Nc2ccc(C(=O)NCCC(=O)O)cn2)C2CCCC2)cc(C)c1-n1cc(C(F)(F)F)cn1 (single isomer, unassigned; isomer 1) [Example 170, (3-(6-((cyclopentyl(3,5-dimethyl-4-(4-(trifluoromethyl)-1H-pyrazol-1-yl)phenyl)methyl)amino)nicotinamido)propanoic acid, Isomer 1]	1300 nM	224 nM
Cc1nn(-c2ccc(NC(c3ccc(C(=O)NCCC(=O)O)cc3)C3CCCC3)cn2)cc1Cl (racemic) [Example 163, (+/−)-3-(4-((6-(4-chloro-3-methyl-1H-pyrazol-1-yl)pyridin-3-ylamino)(cyclopentyl)methyl)benzamido)propanoic acid]	42.7 nM	65.9 nM
CCCC(Nc1ccc(-n2cc(C(F)(F)F)cn2)nc1)c1ccc(C(=O)NCCC(=O)O)cc1F (single isomer, unassigned) [Example 110, 3-(3-fluoro-4-(1-(6-(4-(trifluoromethyl)-1H-pyrazol-1-yl)pyridin-3-ylamino)butyl)benzamido)propanoic acid]	97 nM	57.2 nM
O=C(O)CCNC(=O)c1ccc([C@H](CCC(F)(F)F)Nc2ccc(-n3cc(C(F)(F)F)cn3)nc2)cc1 (single isomer, unassigned; isomer 1) [Example 172, N-{4-[4,4,4-trifluoro-1-({6-[4-(trifluoromethyl)-1H-pyrazol-1-yl]pyridin-3-yl}amino)butyl]benzoyl}-beta-alanine, Isomer 1]	59.9 nM	8.18 nM
CCCC(Oc1ccc(-n2cc3c(C)cccc3n2)cc1)c1ccc(C(=O)NCCC(=O)O)cc1 (centres unmarked) [Example 127, 3-(4-(1-(4-(4-methyl-2H-indazol-2-yl)phenoxy)butyl)benzamido)propanoic acid]	202 nM	316 nM
O=C(O)CCNC(=O)c1ccc([C@@H](Nc2ccc(-n3cc(C(F)(F)F)cn3)nc2)C2CCCCC2)cc1 (single isomer, unassigned) [Example 146, 3-(4-(cyclohexyl(6-(4-(trifluoromethyl)-1H-pyrazol-1-yl)pyridine-3-ylamino)methyl)benzamido)propanoic acid]	21 nM	9.05 nM
Cc1cc(NC(CC(C)C)c2ccc(C(=O)NCCC(=O)O)cc2)cnc1-n1cc(C(F)(F)F)cn1 (racemic) [Example 105, (+/−)-3-(4-(3-methyl-1-(5-methyl-6-(4-(trifluoromethyl)-1H-pyrazol-1-yl)pyridin-3-ylamino)butyl)benzamido)propanoic acid]	455 nM	69.8 nM
CCCC(Oc1ccc(-c2cnn(C)c2)cc1)c1ccc(C(=O)NCCC(=O)O)cc1 (racemic) [Example 54, (+/−)-3-(4-(1-(4-(1-methyl-1H-pyrazol-4-yl)phenoxy)butyl)benzamido)propanoic acid]	3530 nM	–
CCCC(Nc1ccc(-n2cc(C)nn2)cc1)c1ccc(C(=O)NCCC(=O)O)cc1 (racemic) [Example 92, (+/−)-3-(4-(1-(4-(4-methyl-1H-1,2,3-triazol-1-yl)phenylamino)butyl)benzamido)propanoic acid]	5600 nM	–
O=C(O)CCNC(=O)c1ccc(C(Nc2ccc(-n3cc(C(F)(F)F)cn3)nc2)C2CCCC2)cc1 (racemic) [Example 94, (+/−)-3-(4-(cyclopentyl(6-(4-(trifluoromethyl)-1H-pyrazol-1-yl)pyridine-3-ylamino)methyl)benzamido)propanoic acid]	57.5 nM	–
CCCC(Oc1ccc(-n2cc(C)c(C#N)c2C)cc1)c1ccc(C(=O)NCCC(=O)O)cc1 (racemic) [Example 36, (+/−)-3-(4-(1-(4-(3-cyano-2,4-dimethyl-1H-pyrrol-1-yl)phenoxy)butyl)benzamido)propanoic acid]	1820 nM	–
CC(C)CC(Nc1ncc(C(=O)NCCC(=O)O)cn1)c1ccc(-n2cc(C(F)(F)F)cn2)cc1 (racemic) [Example 93, (+/−)-3-(2-(3-methyl-1-(4-(4-(trifluoromethyl)-1H-pyrazol-1-yl)phenyl)butylamino)pyrimidine-5-carboxamido)propanoic acid]	3840 nM	–
CCCC(Oc1ccc(-n2cc(C(F)(F)F)cn2)cn1)c1ccc(C(=O)NCCC(=O)O)cc1 (racemic) [Example 85, (+/−)-3-(4-(1-(5-(4-(trifluoromethyl)-1H-pyrazol-1-yl)pyridine-2-yloxy)butyl)benzamido)propanoic acid]	4140 nM	–
Cc1cc(-n2cc(C(F)(F)F)cn2)ccc1C(Nc1ccc(C(=O)NCCC(=O)O)cn1)C1CCCCC1 (single isomer, unassigned) [Example 117, 3-(6-(cyclohexyl(2-methyl-4-(4-(trifluoromethyl)-1H-pyrazol-1-yl)phenyl)methylamino)nicotinamido)propanoic acid]	227 nM	–
CCCC(Nc1ccc(-n2cnc(C(F)(F)F)c2)nc1)c1ccc(C(=O)NCCC(=O)O)cc1 (single isomer, unassigned; isomer 1) [Example 10, 3-(4-(1-(6-(4-(trifluoromethyl)-1H-imidazol-1-yl)yridine-3-ylamino)butyl)benzamido)propanoic acid, Isomer 1]	15500 nM	–
CCCC(Nc1ccc(-n2cc(F)cn2)cc1)c1ccc(C(=O)NCCC(=O)O)cc1 (racemic) [Example 63, (+/−)-3-(4-(1-(4-(4-fluoro-1H-pyrazol-1-yl)phenylamino)butyl)benzamido)propanoic acid]	613 nM	–
CCCC(Oc1ccc(-n2ccc(CC)n2)cc1)c1ccc(C(=O)NCCC(=O)O)cc1 (racemic) [Example 42, (+/−)-3-(4-(1-(4-(3-ethyl-1H-pyrazol-1-yl)phenoxy)butyl)benzamido)propanoic acid]	2810 nM	–
CCCC(Oc1ccc(-c2cnn(CCC)c2)cc1)c1ccc(C(=O)NCCC(=O)O)cc1 (racemic) [Example 50, (+/−)-3-(4-(1-(4-(1-propyl-1H-pyrazol-4-yl)phenoxy)butyl)benzamido)propanoic acid]	1560 nM	–
CCCC(Oc1ccc(-c2c(C)noc2C)cc1)c1ccc(C(=O)NCCC(=O)O)cc1 (racemic) [Example 52, (+/−)-3-(4-(1-(4-(3,5-dimethylisoxazol-4-yl)phenoxy)butyl)benzamido)propanoic acid]	2410 nM	–
CCCC(Oc1ccc(-n2cc(SC)cn2)cc1)c1ccc(C(=O)NCCC(=O)O)cc1 (racemic) [Example 20, (+/−)-3-(4-(1-(4-(4-(methylthio)-1H-pyrazol-1-yl)phenoxy)butyl)benzamido)propanoic acid]	800 nM	–
CCCC(Oc1ccc(-n2cc(C(F)(F)F)nc2C)cc1)c1ccc(C(=O)NCCC(=O)O)cc1 (racemic) [Example 75, (+/−)-3-(4-(1-(4-(2-methyl-4-(trifluoromethyl)-1H-imidazol-1-yl)phenoxy)butyl)benzamido)propanoic acid]	7710 nM	–
Cc1cc(NC(CC(C)C)c2ccc(C(=O)NCCC(=O)O)cn2)cnc1-n1cc(C(F)(F)F)cn1 (racemic) [Example 102, (+/−)-3-(6-(3-methyl-1-(5-methyl-6-(4-(trifluoromethyl)-1H-pyrazol-1-yl)pyridin-3-ylamino)butyl)nicotinamido)propanoic acid]	3540 nM	–
CCCC(Oc1ccc(-c2cc[nH]n2)cc1)c1ccc(C(=O)NCCC(=O)O)cc1 (racemic) [Example 51, (+/−)-3-(4-(1-(4-(1H-pyrazol-3-yl)phenoxy)butyl)benzamido)propanoic acid]	1810 nM	–
CCCC(Oc1ccc(-n2c(C)c(C)c(C)c2C#N)cc1)c1ccc(C(=O)NCCC(=O)O)cc1 (racemic) [Example 35, (+/−)-3-(4-(1-(4-(2-cyano-3,4,5-trimethyl-1H-pyrrol-1-yl)phenoxy)butyl)benzamido)propanoic acid]	1790 nM	–
